Our source for the inhibition values is US8263598B2, “Substituted sulfonamide compounds” (Gruenenthal GmbH, priority 2008, dated 2012).

Assay [1] deals with T1, human B1R receptor (hB1R) (Homo sapiens, UniProt P46663).
T1 construct: host or cells: CHO K1 cells
T1 sequence (P46663 1-353): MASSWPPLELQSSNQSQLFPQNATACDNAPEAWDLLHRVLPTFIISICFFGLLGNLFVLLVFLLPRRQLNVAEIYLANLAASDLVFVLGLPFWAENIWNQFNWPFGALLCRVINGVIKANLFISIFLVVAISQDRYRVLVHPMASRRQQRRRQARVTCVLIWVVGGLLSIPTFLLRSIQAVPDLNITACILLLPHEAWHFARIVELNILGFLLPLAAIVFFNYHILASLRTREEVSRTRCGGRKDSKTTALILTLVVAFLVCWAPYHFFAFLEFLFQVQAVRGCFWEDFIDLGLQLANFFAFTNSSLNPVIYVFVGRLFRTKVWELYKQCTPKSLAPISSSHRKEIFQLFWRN
Put plainly: FLIPR Ca2+ assay on human bradykinin 1 receptor (CHO K1 hB1R cells). It counts as cell-based. Conditions: test substance 10 μM; CHO K1 cells with human B1R gene; agonist Lys-Des-Arg9-bradykinin 0.5 nM; compared to maximum achievable inhibition. The procedure, abridged: (§1)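 Values are percent inhibition of agonist-evoked Ca²⁺ influx, measured by Fluo-4 fluorescence peak in FLIPR relative to maximum achievable inhibition. Compound at 10 μM was preincubated 10 min on B1R-transfected CHO K1 cells before challenge with 0.5 nM Lys-Des-Arg9-bradykinin (human) or 100 nM Des-Arg9-bradykinin (rat).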

For assay [2], the target named is T2, B1R receptor of rats (rB1R) (Rattus norvegicus, UniProt P97583).
T2 construct: host or cells: CHO K1 cells
T2 sequence (P97583 1-337): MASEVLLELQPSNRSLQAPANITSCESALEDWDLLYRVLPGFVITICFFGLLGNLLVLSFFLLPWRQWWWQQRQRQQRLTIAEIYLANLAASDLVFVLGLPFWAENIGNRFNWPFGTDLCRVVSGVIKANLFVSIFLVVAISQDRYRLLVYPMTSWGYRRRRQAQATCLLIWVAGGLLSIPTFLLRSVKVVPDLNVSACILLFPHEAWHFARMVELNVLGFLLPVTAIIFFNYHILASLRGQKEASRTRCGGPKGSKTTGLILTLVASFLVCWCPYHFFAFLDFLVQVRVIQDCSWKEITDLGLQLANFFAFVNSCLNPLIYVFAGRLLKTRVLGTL
Put plainly: FLIPR Ca2+ assay on rat bradykinin 1 receptor (CHO K1 rB1R cells). It counts as cell-based. Conditions: test substance 10 μM; CHO K1 cells with B1R gene of rats; agonist Des-Arg9-bradykinin 100 nM; compared to maximum achievable inhibition. The procedure, abridged:
as §1

Broadly, the inhibition is the drop in the measured response relative to a control, in per cent. The low end stands for a response near the control, the high end for a response far below the control.

As for `COc1cc(C)c(S(=O)(=O)N(CCOCC(=O)N2CCn3ccnc3C2)Cc2ccccc2)c(C)c1C` [Example 43, N-benzyl-N-(2-(2-(5,6-dihydroimidazo[1,2-a]pyrazin-7(8H)-yl)-2-oxoethoxy)ethyl)-4-methoxy-2,3,6-trimethylbenzenesulfonamide], the inhibition at 10 µM in assay [1] is 33%; in assay [2], 73%.
On to `COc1cc(C)c(S(=O)(=O)N(CCOCC(=O)N2CCn3cccc3C2C(C)(C)C)Cc2ccccc2)c(C)c1` (centres unmarked) [Example 44, N-benzyl-N-(2-(2-(1-tert-butyl-3,4-dihydropyrrolo[1,2-a]pyrazin-2(1H)-yl)-2-oxoethoxy)ethyl)-4-methoxy-2,6-dimethylbenzenesulfonamide], for which the figures for the inhibition at 10 µM in assay [1] and in assay [2] were 88% and 98%, respectively.
The like results for `COc1cc(C)c(S(=O)(=O)N(CCOCC(=O)N2CCn3cccc3C2C)Cc2ccccc2)c(C)c1` (centres unmarked) [Example 45, N-benzyl-4-methoxy-2,6-dimethyl-N-(2-(2-(1-methyl-3,4-dihydropyrrolo[1,2-a]pyrazin-2(1H)-yl)-2-oxoethoxy)ethyl)benzenesulfonamide] were, in that order, 83% and 99%.
Consider `COc1cc(C)c(S(=O)(=O)N(CCOCC(=O)N2CCn3ccnc3C2)Cc2ccccc2)c(C)c1` [Example 46, N-benzyl-N-(2-(2-(5,6-dihydroimidazo[1,2-a]pyrazin-7(8H)-yl)-2-oxoethoxy)ethyl)-4-methoxy-2,6-dimethylbenzenesulfonamide], for which the results for the inhibition at 10 µM in assay [1] and in assay [2] were 41% and 96%, respectively.
With `COc1ccc(C2c3cccn3CCN2C(=O)COCCN(Cc2ccccc2)S(=O)(=O)c2c(C)cc(OC)cc2C)cc1` (centres unmarked) [Example 47, N-benzyl-4-methoxy-N-(2-(2-(1-(4-methoxyphenyl)-3,4-dihydropyrrolo[1,2-a]pyrazin-2(1H)-yl)-2-oxoethoxy)ethyl)-2,6-dimethylbenzenesulfonamide], the inhibition at 10 µM in assay [1] is 42%; in assay [2] it was 100%.
Taken in the same sequence, the figures for `COc1cc(C)c(S(=O)(=O)N(CCOCC(=O)N2CCn3cccc3C2c2ccccc2)Cc2ccccc2)c(C)c1` (centres unmarked) [Example 48, N-benzyl-4-methoxy-2,6-dimethyl-N-(2-(2-oxo-2-(1-phenyl-3,4-dihydropyrrolo[1,2-a]pyrazin-2(1H)-yl)ethoxy)ethyl)benzenesulfonamide] were 54% and 98%.
The like results for `COc1cc(C)c(S(=O)(=O)N(CCOCC(=O)N2CCn3cccc3C2c2ccc(C)c(C)c2)Cc2ccccc2)c(C)c1` (centres unmarked) [Example 49, N-benzyl-N-(2-(2-(1-(3,4-dimethylphenyl)-3,4-dihydropyrrolo[1,2-a]pyrazin-2(1H)-yl)-2-oxoethoxy)ethyl)-4-methoxy-2,6-dimethylbenzenesulfonamide] were, in that order, 39% and 69%.
The like results for `COc1cc(C)c(S(=O)(=O)N(CCOCC(=O)N2CCn3cccc3C2c2cccs2)Cc2ccccc2)c(C)c1` (centres unmarked) [Example 50, N-benzyl-4-methoxy-2,6-dimethyl-N-(2-(2-oxo-2-(1-(thiophen-2-yl)-3,4-dihydropyrrolo[1,2-a]pyrazin-2(1H)-yl)ethoxy)ethyl)benzenesulfonamide] were, in that order, 48% and 100%.
Turning to `COc1cc(C)c(S(=O)(=O)N(CCOCC(=O)N2CCn3cccc3C2c2ccc(C(C)(C)C)cc2)Cc2ccccc2)c(C)c1` (centres unmarked) [Example 51, N-benzyl-N-(2-(2-(1-(4-tert-butylphenyl)-3,4-dihydropyrrolo[1,2-a]pyrazin-2(1H)-yl)-2-oxoethoxy)ethyl)-4-methoxy-2,6-dimethylbenzenesulfonamide], the inhibition at 10 µM was 58% in assay [1] and 85% in assay [2].
Turning to `COc1cc(C)c(S(=O)(=O)N(C)CCOCC(=O)N2CCn3cccc3C2C(C)(C)C)c(C)c1` (centres unmarked) [Example 52, N-(2-(2-(1-tert-butyl-3,4-dihydropyrrolo[1,2-a]pyrazin-2(1H)-yl)-2-oxoethoxy)ethyl)-4-methoxy-N,2,6-trimethylbenzenesulfonamide], the inhibition at 10 µM in assay [1] is 100%; in assay [2], 98%.
